This note sets out measurements from patent publication US5164295A, “Method for identifying amyloid protein-extracellular matrix protein affinity altering compounds” (The Upjohn Company, priority 1991, dated 1992).

Assay [1] has as its target T1, HSPG binding to AAP751 /s (Homo sapiens, UniProt P05067).
T1 construct: maintained the entire extracellular portion of the AAP; made in house; host or cells: insect cells (recombinant baculovirus)
Kind of assay: Effect of test compounds on intact HSPG binding to immobilized AAP751 /s (ELISA). The settings on record: for Activity: binding of intact HSPG, percentage ± SD of control: AAP751 /S, HSPG 2 μg/ml; for HSPG binding, % of control: AAP751. The arrangement: effect of increasing concentration on degree of HSPG binding to AAP751 /s: dose or concentration left out as unconfirmed. As to the method: (§1) The assay comprised immobilizing AAP695 /s which was then exposed to free HSPG in the absence or presence of test compounds. Other aspects of the assay included exposing free HSPG to either immobilized AAP751 /s, or AAP770 /s, each in the absence or presence of test compounds. The assay was also performed with fibronectin as the immobilized protein in order to provide a positive control. In each case, a series of concentrations of HSPG and test compounds was used. Additionally, to determine whether or not the carbohydrate moiety of HSPG was involved in the binding to immobilized components, the carbohydrate moiety of HSPG was removed and assays were performed using the carbohydrate-free HSPG core protein. The test compounds used in experiments described here include heparin, dextran sulfate, chondroitin sulfate, dermatan sulfate, fibronectin, gelatin, bovine serum albumin (BSA), Ca^++ (CaCl2), Mg^++ (MgCl2), Mn^++ (MnCl2), Co^++ (Co(NO3)2), and Zn^++ (ZnCl2).
(§2) The assay used in studying the interaction between HSPG and protein ligands was an ELISA technique. Briefly, polystyrene micro-titer plates (Linbro, Flow Lab Inc.) were coated with a 100 μl solution, containing 1 μg/ml of the protein of interest (one of the three forms of AAP or fibronectin) in 20 mM NaHCO3 buffer pH 9.6. After incubation overnight at 4° C., the plates were rinsed with 0.15M NaCl, 20 mM Tris-Cl pH 7.5 (TBS). The plates were then incubated with 150 μl of 1% BSA in TBS for 2 hours at 37° C. to block the residual hydrophobic surface on the wells. After rinsing with TBS containing 0.05% (w/v) Tween 20 (TBS-Tween), 100 μl of various concentrations of HSPG in TBS-Tween were added. The plates were left overnight at 4° C., to permit maximum binding of HSPG to the coated proteins. The plates were then washed extensively and incubated for 2 hours at 37° C., with 100 μl of anti-HSPG diluted in TBS-Tween containing 0.1% BSA. The plates were washed again and incubated for another 2 hours with 100 μl of goat anti-rabbit-IgG conjugated with alkaline phosphatase (1:2000 dilution) in TBS-Tween containing BSA as above. Finally, after further washing, the bound antibodies were detected by adding an alkaline phosphatase substrate solution (100 μl) containing 2 mg/ml p-nitrophenyl phosphate, 0.1 mM ZnCl2, 1 mM MgCl2 and 100 mM glycine pH 10. The plates were left at room temperature for 15-120 minutes depending on the protein tested. The enzyme reaction was stopped by addition of 50 μl of 2M NaOH. The absorbance of the released p-nitrophenol was measured at 405 nm with a Titertek Multiscan/MCC 340 (Flow Lab. Ltd.). The amounts of HSPG bound were determined by the net OD405 after substracting the OD from the blank wells in which the HSPG incubation step was omitted. When the actual amounts of HSPG bound were to be calculated, a set of standards (0.05-50 ng/well) of HSPG in NaHCO3 buffer were pre-coated into wells on the same plates as the test proteins. The incubations proceeded as described above omitting the incubation of the HSPG solution with the HSPG standard coated wells. The actual amounts of HSPG bound to the test proteins were calculated from the OD405 standard curve produced by the HSPG standards using a Titersoft II E.J.A. software program (Flow Lab. Ltd.).
(§3) Heparin and dextran sulfate, respectively, were each used as test compounds to determine their effect on the HSPG binding to AAP forms and fibronectin. Various concentrations of heparin or dextran sulfate were added together with a constant amount of HSPG to wells coated with AAPs for fibronectin.

Assay [2] concerns the target T2, HSPG binding to AAP695 /s (Homo sapiens, UniProt P05067).
T2 construct: maintained the entire extracellular portion of the AAP; made in house; host or cells: insect cells (recombinant baculovirus)
Kind of assay: Effect of test compounds on intact HSPG binding to immobilized AAP695 /s (ELISA). The conditions noted are these: for Activity: binding of intact HSPG, percentage ± SD of control: AAP695 /S, HSPG 2 μg/ml; for HSPG binding, % of control: AAP695. As to the method:
as §1, §2, §3

Assay [3] deals with HSPG binding to fibronectin. Briefly: Effect of test compounds on intact HSPG binding to immobilized fibronectin (ELISA). The arrangement: species or system bovine; effect of increasing concentration on degree of HSPG binding to fibronectin: dose or concentration left out as unconfirmed. The settings on record: for Activity: binding of intact HSPG, percentage ± SD of control: Fibronectin, HSPG 2 μg/ml; for HSPG binding, % of control: fibronectin; for inhibition of HSPG binding to immobilized fibronectin: test compound 50 μg/ml. As to the method: as §1
Fibronectin (from bovine plasma), heparin (grade II from porcine intestinal mucosa, average molecular weight=[…]), heparan sulfate, chondroitin sulfate, dextran sulfate, BSA, and alkaline phosphatase substrate were obtained from Sigma, St. Louis, Mo. Alkaline phosphatase conjugated goat anti-rabbit IgG was obtained from Boehringer-Manneheim, and heparitinase from ICN Biochemicals.
as §2, §3

The test system of assay [4] is HSPG binding to AAP proteins and fibronectin. Kind of assay: Effect of test compounds on HSPG binding, stated collectively for the immobilized proteins. The settings on record: for effect on HSPG binding to any AAP protein tested (negated sentence: 'Neither ... had any effect'): even at 4000 μg/ml. As to the method: as §1, §2
In addition to test compounds described above, other compounds were tested to determine their effect upon HSPG-AAP binding.

Where [5] appears, read: test compound 500 μg/ml (Table II).

As to dextran sulfate, the “mode of inhibition of HSPG binding to AAP751 /s” value in assay [1] was “noncompetitive”. Further, the “Activity: binding of intact HSPG, percentage ± SD of control” value (shortened to “Activity … percentage ± SD of control”) in assay [1] (addition 500 μg/ml) worked out at 63 ± 8.6%; in assay [2] (addition 500 μg/ml), 8.5 ± 2.4%; in assay [3] (addition 500 μg/ml), 71 ± 10.8%. Moreover, the “HSPG binding, % of control” value amounted to 74% in assay [1] (test compound 31.2 μg/ml); 71% in assay [1] (test compound 62.5 μg/ml); 67% in assay [1] (test compound 125 μg/ml); 68% in assay [1] (test compound 250 μg/ml); 63% in assay [1] (setting [5]); 14% in assay [2] (test compound 31.2 μg/ml). The “HSPG binding, % of control” value in assay [2] (test compound 62.5 μg/ml) was found to be 11%; in assay [2] (test compound 125 μg/ml) it was 9%; in assay [2] (test compound 250 μg/ml), 11%; in assay [2] (setting [5]) it was 11%; in assay [3] (test compound 31.2 μg/ml), 67%; in assay [3] (test compound 62.5 μg/ml) it was 70%. Moreover, the “HSPG binding, % of control” value came out at 68% in assay [3] (test compound 125 μg/ml), 63% in assay [3] (test compound 250 μg/ml) and 60% in assay [3] (setting [5]). In addition, in assay [1] (concentration increased), the “effect of increasing concentration on degree of HSPG binding to AAP751 /s” value was “did not further decrease”. Further, the “inhibition of HSPG binding to AAP751 /s” value in assay [1] (test compound 32 μg/ml) came to 30%. Also, in assay [2], the “mode of inhibition of HSPG binding to AAP695 /s” value is reported as “probably competitive”. Moreover, the “inhibition of HSPG binding to AAP695 /s” value in assay [2] (test compound 32 μg/ml) was “about 85%”. In assay [3], the “mode of inhibition of HSPG binding to fibronectin” value is “noncompetitive”. In assay [3] (concentration increased), the “effect of increasing concentration on degree of HSPG binding to fibronectin” value is recorded as “did not further decrease”. Also, the “inhibition of HSPG binding to fibronectin” value in assay [3] (test compound 32 μg/ml) was found to be 30%.
With Gelatin, the results for the “Activity … percentage ± SD of control” value in assay [1] (addition 50 μg/ml), in assay [2] (addition 50 μg/ml) and in assay [3] (addition 50 μg/ml) were 60.2 ± 8.3%, 50.5 ± 18.4% and 28.5 ± 16.5%, respectively. Further, the “inhibition of HSPG binding to AAP751 /s” value in assay [1] (test compound 50 μg/ml) is listed as 40%. In addition, in assay [2] (test compound 50 μg/ml), the “inhibition of HSPG binding to AAP695 /s” value came out at 50%. Moreover, the “inhibition of HSPG binding to immobilized fibronectin” value in assay [3] was found to be 70%.
As for `[Cl-].[Cl-].[Mg+2]` [MgCl2], the “Activity … percentage ± SD of control” value in assay [1] (addition 10 mM) is 102.5 ± 7.8%; in assay [2] (addition 10 mM), 102.5 ± 6.4%; in assay [3] (addition 10 mM), 105 ± 9.9%. Further, the “effect of divalent metal ion on HSPG binding” value (“effect of divalent metal ion” for short) in assay [4] (10 mM) was “unaffected”.
With `[Cl-].[Cl-].[Zn+2]` [ZnCl2], the “Activity … percentage ± SD of control” value in assay [1] (addition 0.1 mM) was determined as 85.5 ± 9%; in assay [2] (addition 0.1 mM) it was 31 ± 8.1%; in assay [3] (addition 0.1 mM), 44 ± 14.6%. In addition, the “inhibition of HSPG binding to AAP695 /s” value in assay [2] (test compound 0.1 mM) was 70%. The “inhibition of HSPG binding to fibronectin” value in assay [3] (test compound 0.1 mM) is on record as 55%.
In the case of `O=[N+]([O-])[O-].O=[N+]([O-])[O-].[Co+2]` [Co (NO3), Co(NO3)2], the “Activity … percentage ± SD of control” value in assay [1] (addition 0.1 mM) is recorded as 91 ± 8.5%; in assay [2] (addition 0.1 mM) it was 97.3 ± 2.5%; in assay [3] (addition 0.1 mM), 100 ± 14%. The “effect of divalent metal ion” value in assay [4] (0.1 mM) is “unaffected”.
In the case of chondroitin sulfate, the “Activity … percentage ± SD of control” value in assay [1] (addition 4 mg/ml) is given as 110 ± 24.2%; in assay [2] (addition 4 mg/ml) it was 110 ± 15.3%; in assay [3] (addition 4 mg/ml) it was 107 ± 10.8%. Also, the “effect on HSPG binding to any AAP protein tested (negated sentence: 'Neither ... had any effect')” value in assay [4] is on record as “had any effect”.
As for `[Cl][Mn][Cl]` [MnCl2], the results for the “Activity … percentage ± SD of control” value in assay [1] (addition 4 mM), in assay [2] (addition 4 mM) and in assay [3] (addition 4 mM) were 106 ± 19.7%, 107 ± 18.3% and 101.5 ± 9.2%, respectively. For the same molecule, the “effect of divalent metal ion” value in assay [4] (4 mM) is “unaffected”.
With “Fibronectin: Fibronectin from bovine plasma (Sigma), added in solution as test compound”, the “Activity … percentage ± SD of control” value in assay [1] (addition 50 μg/ml) is listed as 103.7 ± 14.5%; in assay [2] (addition 50 μg/ml), 76.3 ± 9.5%; in assay [3] (addition 50 μg/ml), 33.4 ± 18.4%. The “inhibition of HSPG binding to immobilized fibronectin” value in assay [3] was 65%. The “interference with HSPG binding to the AAPs” value in assay [4] (test compound 50 μg/ml in solution, the AAPs) was “only moderately interferes”.
For the molecule `[Ca+2].[Cl-].[Cl-]` [CaCl2], the figures for the “Activity … percentage ± SD of control” value in assay [1] (addition 4 mM), in assay [2] (addition 4 mM) and in assay [3] (addition 4 mM) were 105.5 ± 3.5%, 92.5 ± 7.7% and 101.5 ± 2.1%, respectively. For the same molecule, the “effect of divalent metal ion” value in assay [4] (3 mM) is on record as “unaffected”.
With dermatan sulfate, the “Activity … percentage ± SD of control” value in assay [1] (addition 4 mg/ml) was 127 ± 30%; in assay [2] (addition 4 mg/ml), 121 ± 14%; in assay [3] (addition 4 mg/ml) it was 107 ± 20.6%. Besides, the “effect on HSPG binding to any AAP protein tested (negated sentence: 'Neither ... had any effect')” value in assay [4] was “had any effect”.
